The values that follow come from patent publication US9682967B2.

The target in the test is hSortilin (Homo sapiens (Human), UniProt Q99523). The test is described as follows: hSortilin affinity assay (displacement of 3H-neurotensin, SPA). It is filed as binding. Conditions: for IC50: [3H]-Neurotensin 5 nM, 150 nM 6his-Sortilin, read-out: hSortilin NTS Binding IC50; for Ki: from IC50 by Cheng-Prusoff, Kd neurotensin 100 nM.
hSortilin, sequence (Q99523 34-755): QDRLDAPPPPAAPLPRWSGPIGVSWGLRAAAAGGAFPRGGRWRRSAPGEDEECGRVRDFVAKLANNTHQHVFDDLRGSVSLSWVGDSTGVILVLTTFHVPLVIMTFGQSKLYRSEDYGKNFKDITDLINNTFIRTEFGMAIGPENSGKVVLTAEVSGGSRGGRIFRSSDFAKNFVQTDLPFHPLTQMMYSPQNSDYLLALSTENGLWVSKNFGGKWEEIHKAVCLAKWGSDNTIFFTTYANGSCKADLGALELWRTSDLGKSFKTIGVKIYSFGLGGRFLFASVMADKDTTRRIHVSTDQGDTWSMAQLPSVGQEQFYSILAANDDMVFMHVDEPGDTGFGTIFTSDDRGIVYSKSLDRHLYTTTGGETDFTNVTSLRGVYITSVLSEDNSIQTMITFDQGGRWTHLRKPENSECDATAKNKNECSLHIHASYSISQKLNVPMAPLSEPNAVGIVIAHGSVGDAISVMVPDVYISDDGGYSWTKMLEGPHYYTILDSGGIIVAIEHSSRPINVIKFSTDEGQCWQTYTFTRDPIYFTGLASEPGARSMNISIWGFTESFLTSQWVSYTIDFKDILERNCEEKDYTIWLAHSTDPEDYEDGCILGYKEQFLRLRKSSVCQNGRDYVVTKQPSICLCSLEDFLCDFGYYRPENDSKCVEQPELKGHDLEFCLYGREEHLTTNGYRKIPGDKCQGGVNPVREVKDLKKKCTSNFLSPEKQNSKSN

In the case of `Cc1cccc(NC(=O)c2ccc(Br)cc2C(=O)O)n1` [Example 2, 5-Bromo-N-(6-methyl-pyridin-2-yl)-phthalamic acid], the IC50 was 1200 nM and the Ki is 1140 nM.

For the molecule `Cc1ccc(C(=O)Nc2cccc(C)n2)c(C(=O)O)c1` [Example 3, 5-Methyl-N-(6-methyl-pyridin-2-yl)-phthalamic acid], the IC50 was 6400 nM and affinity was put at a Ki of 6100 nM.

As for `Cc1cccc(NC(=O)c2ccc(Cl)cc2C(=O)O)n1` [Example 4, 5-Chloro-N-(6-methyl-pyridin-2-yl)-phthalamic acid], the IC50 is 1400 nM and the Ki was determined as 1330 nM.

For the molecule `Cc1cccc(NC(=O)c2cc(Cl)c(Cl)cc2C(=O)O)n1` [Example 5, 4,5-Dichloro-N-(6-methyl-pyridin-2-yl)-phthalamic acid], the IC50 was 830 nM and the affinity, expressed as Ki, was 790 nM.

On to `N#Cc1c(NC(=O)c2ccc(Br)cc2C(=O)O)sc2c1CCCC2` [Example 6], for which the IC50 was found to be 4000 nM.

On to `Cc1ccc(NC(=O)c2ccc(C(F)(F)F)cc2C(=O)O)nc1C` [Example 7, N-(5,6-Dimethyl-pyridin-2-yl)-5-trifluoromethyl-phthalamic acid], for which the IC50 was 170 nM and affinity was put at a Ki of 162 nM.

On to `Cc1ccnc(NC(=O)c2ccc(C(F)(F)F)cc2C(=O)O)c1` [Example 8, N-(4-methyl-pyridin-2-yl)-5-trifluoromethyl-phthalamic acid], for which the IC50 came to 1000 nM and the Ki was found to be 952 nM.

With `Cc1cc(NC(=O)c2ccc(C(F)(F)F)cc2C(=O)O)ccn1` [Example 9, N-(2-methyl-pyridin-4-yl)-5-trifluoromethyl-phthalamic acid], the IC50 worked out at 700 nM and the Ki is 667 nM.

Consider `Cc1ccnc(NC(=O)c2cc(Cl)c(Cl)cc2C(=O)O)c1` [Example 10, 4,5-Dichloro-N-(4-methyl-pyridin-2-yl)-phthalamic acid], for which the IC50 turned out to be 2200 nM and the Ki was determined as 2100 nM.

For `Cc1ccc(NC(=O)c2cc(Cl)c(Cl)cc2C(=O)O)nc1C` [Example 11, 4,5-Dichloro-N-(5,6-Dimethyl-pyridin-2-yl)-phthalamic acid], the half-inhibitory concentration (IC50) was found to be 480 nM and the Ki was found to be 457 nM.

Consider `Cc1cc(NC(=O)c2cc(Cl)c(Cl)cc2C(=O)O)ccn1` [Example 12, 4,5-Dichloro-N-(2-methyl-pyridin-4-yl)-phthalamic acid], for which the IC50 was 1800 nM and the Ki is 1710 nM.

Take `Cc1nccc(NC(=O)c2cc(Cl)c(Cl)cc2C(=O)O)n1` [Example 13, 4,5-Dichloro-N-(2-methyl-pyrimidin-4-yl)-phthalamic acid]: the IC50 amounted to 480 nM and the Ki is 457 nM.

Take `Cc1cccc(NC(=O)c2ccc(Cl)c(F)c2C(=O)O)n1` [Example 14, 5-Chloro-6-fluoro-N-(6-methyl-pyridin-2-yl)-phthalamic acid]: the IC50 was 4200 nM and the Ki was found to be 4000 nM.

As to `Cc1cccc(NC(=O)c2cc(C)c(C)cc2C(=O)O)n1` [Example 15, 4,5-Dimethyl-N-(6-methyl-pyridin-2-yl)-phthalamic acid], the IC50 is 3400 nM and the Ki was 3240 nM.

Turning to `O=C(O)c1cc(C(F)(F)F)ccc1C(=O)Nc1ncc(C(F)(F)F)cc1Cl` [Example 16, 2-((3-chloro-5-(trifluoromethyl)pyridin-2-yl)carbamoyl)-5-(trifluoromethyl)benzoic acid], the IC50 amounted to 360 nM and the affinity, expressed as Ki, was 343 nM.

Regarding `Cc1ccnc(NC(=O)c2ccc(C(F)(F)F)cc2C(=O)O)n1` [Example 17, 2-((4-methylpyrimidin-2-yl)carbamoyl)-5-(trifluoromethyl)benzoic acid], the IC50 is 360 nM and the Ki stood at 343 nM.

As for `Cc1ncc(NC(=O)c2ccc(C(F)(F)F)cc2C(=O)O)nc1C` [Example 18, 2-((5,6-dimethylpyrazin-2-yl)carbamoyl)-5-(trifluoromethyl)benzoic acid], the IC50 was 240 nM and affinity was put at a Ki of 229 nM.

With `Cc1ccc(NC(=O)c2ccc(Br)cc2C(=O)O)nc1` [Example 19, 5-Bromo-N-(5-methyl-pyridin-2-yl)-phthalamic acid], the IC50 is 1700 nM and the Ki stood at 1620 nM.

For `O=C(O)c1cc(Br)ccc1C(=O)Nc1ccc(Cl)cn1` [Example 20, 5-Bromo-N-(5-chloro-pyridin-2-yl)-phthalamic acid], the IC50 came to 990 nM and the affinity, expressed as Ki, was 943 nM.

As to `O=C(O)c1cc(Br)ccc1C(=O)Nc1ccccn1` [Example 21, 5-Bromo-N-pyridin-2-yl-phthalamic acid], the IC50 came out at 3600 nM and the Ki came out at 3430 nM.

On to `O=C(O)c1cc(Br)ccc1C(=O)Nc1cccc(Cl)n1` [Example 22, 5-Bromo-N-(6-chloro-pyridin-2-yl)-phthalamic acid], for which the IC50 amounted to 1600 nM and the Ki worked out at 1520 nM.

With `Cc1ccc(NC(=O)c2ccc(Br)cc2C(=O)O)nc1C` [Example 23, 5-Bromo-N-(5,6-dimethyl-pyridin-2-yl)-phthalamic acid], the IC50 turned out to be 570 nM and the Ki is 543 nM.

For the molecule `Cc1ccnc(NC(=O)c2ccc(Br)cc2C(=O)O)c1` [Example 24, 5-Bromo-N-(4-methyl-pyridin-2-yl)-phthalamic acid], the IC50 was 2400 nM and the affinity, expressed as Ki, was 2290 nM.

In the case of `Cc1cc(NC(=O)c2ccc(Br)cc2C(=O)O)ccn1` [Example 25, 5-Bromo-N-(2-methyl-pyridin-4-yl)-phthalamic acid], the IC50 came to 1800 nM and the affinity, expressed as Ki, was 1710 nM.

Turning to `O=C(O)c1cc(Br)ccc1C(=O)Nc1cccnc1` [Example 26], the IC50 is 5500 nM and affinity was put at a Ki of 5240 nM.

`Cc1csc(NC(=O)c2ccc(Br)cc2C(=O)O)n1` [Example 28, 5-Bromo-N-(4-methyl-thiazol-2-yl)-phthalamic acid]: the IC50 amounted to 3600 nM and the affinity, expressed as Ki, was 3430 nM.

`O=C(O)c1cc(Br)ccc1C(=O)Nc1ccc2ccccc2n1` [Example 29, 5-Bromo-N-quinolin-2-yl-phthalamic acid]: the IC50 was found to be 1300 nM and the Ki is 1240 nM.

For the molecule `O=C(O)c1cc(Br)ccc1C(=O)Nc1ccc(Cl)c(Cl)n1` [Example 30, 5-Bromo-N-(5,6-dichloro-pyridin-2-yl)-phthalamic acid], the IC50 came to 2100 nM and the Ki was 2000 nM.

For the molecule `Cc1ccc(NC(=O)c2ccc(Br)cc2C(=O)O)nn1` [Example 32, 5-Bromo-N-(6-methyl-pyridazin-3-yl)-phthalamic acid], the IC50 turned out to be 3200 nM and the affinity corresponds to a Ki of 3050 nM.

For `Cc1cc(C)nc(NC(=O)c2ccc(Br)cc2C(=O)O)c1` [Example 33, 5-Bromo-N-(4,6-dimethyl-pyridin-2-yl)-phthalamic acid], the IC50 is 970 nM and affinity was put at a Ki of 924 nM.

Take `Cc1nccc(NC(=O)c2ccc(Br)cc2C(=O)O)n1` [Example 34, 5-Bromo-N-(2-methyl-pyrimidin-4-yl)-phthalamic acid]: the IC50 stood at 490 nM and the Ki came out at 467 nM.

For the molecule `Cc1cc(NC(=O)c2ccc(Br)cc2C(=O)O)ncn1` [Example 35, 5-Bromo-N-(6-methyl-pyrimidin-4-yl)-phthalamic acid], the IC50 was determined as 2000 nM and the Ki amounted to 1900 nM.

For the molecule `COc1cc(NC(=O)c2ccc(C(F)(F)F)cc2C(=O)O)ccn1` [Example 36, N-(2-Methoxy-pyridin-4-yl)-5-trifluoromethyl-phthalamic acid], the IC50 worked out at 750 nM and the affinity corresponds to a Ki of 714 nM.

In the case of `COc1cccc(NC(=O)c2ccc(C(F)(F)F)cc2C(=O)O)n1` [Example 37, N-(6-Methoxy-pyridin-2-yl)-5-trifluoromethyl-phthalamic acid], the IC50 was 1300 nM and the affinity, expressed as Ki, was 1240 nM.

Turning to `O=C(O)c1cc(C(F)(F)F)ccc1C(=O)NCc1ccccn1` [Example 38, N-Pyridin-2-ylmethyl-5-trifluoromethyl-phthalamic acid], the IC50 came to 1600 nM and the Ki is 1520 nM.

Regarding `O=C(O)c1cc(C(F)(F)F)ccc1C(=O)NCc1ccncc1` [Example 39, N-Pyridin-4-ylmethyl-5-trifluoromethyl-phthalamic acid], the IC50 is 7500 nM and affinity was put at a Ki of 7140 nM.

Take `O=C(O)c1cc(C(F)(F)F)ccc1C(=O)NCc1cccnc1` [Example 40, N-Pyridin-3-ylmethyl-5-trifluoromethyl-phthalamic acid]: the IC50 stood at 4800 nM and the Ki amounted to 4570 nM.

Turning to `CCCc1ccc(C(=O)Nc2cccc(C)n2)c(C(=O)O)c1` [Example 41, N-(6-Methyl-pyridin-2-yl)-5-propyl-phthalamic acid], the IC50 turned out to be 3600 nM and the Ki is 3430 nM.

On to `C=C(C)c1ccc(C(=O)Nc2cccc(C)n2)c(C(=O)O)c1` [Example 42, N 5-Isopropenyl-N-(6-methyl-pyridin-2-yl)-phthalamic acid], for which the IC50 is 5200 nM and the Ki was 4950 nM.

With `Cc1cccc(NC(=O)c2ccc(C(C)C)cc2C(=O)O)n1` [Example 43, N 5-Isopropyl-N-(6-methyl-pyridin-2-yl)-phthalamic acid], the IC50 was 1100 nM and the Ki was determined as 1050 nM.

For `Cc1nccc(NC(=O)c2ccc(C(F)(F)F)cc2C(=O)O)n1` [Example 44, 2-((2-methylpyrimidin-4-yl)carbamoyl)-5-(trifluoromethyl)benzoic acid], the IC50 is 300 nM and the Ki stood at 286 nM.

As to `Cc1cnc(NC(=O)c2ccc(C(F)(F)F)cc2C(=O)O)nc1C` [Example 45, 2-((4,5-dimethylpyrimidin-2-yl)carbamoyl)-5-(trifluoromethyl)benzoic acid], the IC50 came out at 200 nM and the Ki is 190 nM.

As for `O=C(O)c1cc(C(F)(F)F)ccc1C(=O)Nc1ccc2c(n1)CCCC2` [Example 46, 2-((5,6,7,8-tetrahydroquinolin-2-yl)carbamoyl)-5-(trifluoromethyl)benzoic acid], the IC50 was 88 nM and the affinity corresponds to a Ki of 84 nM.
